In PubChem BioAssay AID1648 (Sanford-Burnham Center for Chemical Genomics, 2009):
Activity calls are given as the source filed them. How the calls were made is not given here.

Each compound was assayed against Serine/threonine-protein kinase mTOR (Homo sapiens) (UniProt P42345) (assay: binders of mTOR FRB domain, biophysical, NMR (AID 1648)). Details: NMR binding to FRB domain, chemical shift.
Sequence of Serine/threonine-protein kinase mTOR (Homo sapiens) (P42345 2015-2114): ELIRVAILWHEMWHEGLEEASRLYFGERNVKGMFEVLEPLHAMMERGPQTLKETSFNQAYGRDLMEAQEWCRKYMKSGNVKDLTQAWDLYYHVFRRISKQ
In the case of Cn1ccc(NC(=S)NC2CCCC2)n1, the Kd is reported as > 4 mM (inactive). CN1CCOc2cc(C(=O)O)ccc21 was tested, and the Kd was > 4 mM (inactive). With O=C(O)/C=C/C=C/c1ccccc1 the Kd was > 4 mM (inactive). For Cc1c(-c2ccccc2)[n+](=O)c(-c2ccco2)c(C)n1[O-], the Kd was > 4 mM (inactive). For NNc1ncnc2sccc12, the Kd was > 4 mM (inactive). OCC12COC3c4ccccc4C(OC1)N32 (centres undefined) was tested, and the Kd was > 4 mM (inactive). For CC(Sc1ncn[nH]1)C(=O)O (centres undefined), the Kd was > 4 mM (inactive). In the case of O=C(O)c1cccc2c1OCC2, the Kd is reported as > 4 mM (inactive). With NCc1ccc(-n2cccc2)cc1 the Kd was > 4 mM (inactive). For COc1ccc2c(c1)O[C@@H]1COc3cc(OC)c(OC)cc3[C@@H]1C2=O, the Kd was > 4 mM (inactive). With CCCC(=O)N1CCSCC1 the Kd was > 4 mM (inactive). For O=C1C2=C(SCCS2)C(=O)N1CCCO, the Kd was > 4 mM (inactive). For CC(=O)NN1C(=O)/C(=C\c2ccc(O)cc2)SC1=S, the Kd was > 4 mM (inactive). For C=C1C2CC[C@@]3(C)[C@H](c4ccoc4)OC(=O)C[C@]13O[C@H]1C[C@H](OC(C)=O)C(C)(C)[C@H](CC(=O)OC)[C@@]21C, the Kd was > 4 mM (inactive). For NC(CC(=O)O)C(=O)Nc1ccc(Cl)cc1 (centres undefined), the Kd was > 4 mM (inactive). For NC(=O)c1ccccc1N=Cc1ccco1, the Kd was > 4 mM (inactive). For CC1/C(=N/O)C[C@@H]2C[C@H]1C2(C)C (some centres undefined), the Kd was > 4 mM (inactive). In the case of O=C(c1ccc(N2CCNCC2)cc1)c1cccnc1, the Kd is reported as > 4 mM (inactive). NC(=O)COc1cccc2cccnc12 was tested, and the Kd was > 4 mM (inactive). COC(=O)c1ccc2nsnc2c1 was tested, and the Kd was > 4 mM (inactive). In the case of CC(C)[C@@H]1CC[C@@H](C)C[C@H]1O, the Kd is reported as > 4 mM (inactive). With CC1(C)CC(NC(=O)/C=C/C(=O)O)CC(C)(C)N1 the Kd was > 4 mM (inactive). In the case of Cc1n[nH]c(C)c1CN, the Kd is reported as > 4 mM (inactive). CC(=O)c1c(O)n(C)c(=S)n(C)c1=O was tested, and the Kd was > 4 mM (inactive). For Cc1ccccc1OCC(=O)O, the Kd was > 4 mM (inactive). Nc1nc2ncc(=O)[nH]c2c(=O)[nH]1 was tested, and the Kd was > 4 mM (inactive). In the case of O=C(O)CCCC(=O)Nc1nccs1, the Kd is reported as > 4 mM (inactive). For Cn1c(O)c(C=NCC2CCNCC2)c(=O)n(C)c1=O, the Kd was > 4 mM (inactive). In the case of C=C[C@](C)(O)CCC=C(C)C, the Kd is reported as > 4 mM (inactive). For O=C(O)CC[N+](=O)[O-], the Kd was > 4 mM (inactive). With COC(=O)CC1=Nc2ccccc2NC(=O)C1 the Kd was > 4 mM (inactive). With COc1ccc(C)cc1S(=O)(=O)N1CCCCC1 the Kd was > 4 mM (inactive). For Cn1c(SCC(N)=O)nc2ccccc2c1=O, the Kd was > 4 mM (inactive). COC(=O)c1oc2ccc(Cl)cc2c1NC(C)=O was tested, and the Kd was > 4 mM (inactive). In the case of CCCNC(CC(=O)Nc1cccnc1)C(=O)O (centres undefined), the Kd is reported as > 4 mM (inactive). In the case of O=c1[nH]c2sc3c(c2c2nncn12)CCCC3, the Kd is reported as > 4 mM (inactive). In the case of Cn1c(=O)n(CC(=O)Nc2cccnc2)c2ccccc21, the Kd is reported as > 4 mM (inactive). With COc1cc2cc3c4cc(OC)c(OC)cc4cc[n+]3c(C)c2cc1OC the Kd was > 4 mM (inactive). For CCc1noc(C)c1C(=O)N1CCOCC1, the Kd was > 4 mM (inactive). In the case of Cc1cccc(CO)n1, the Kd is reported as > 4 mM (inactive). For Cc1c(C(=O)Nc2ccncc2)oc2c1C(=O)CC(C)(C)C2, the Kd was > 4 mM (inactive). For COc1ccc2c(c1O)-c1c(OC)c(OC)cc3c1[C@H](C2)N(C)CC3, the Kd was > 4 mM (inactive). CC(=O)O[C@@H]1CC2C(C)(C)[C@H](O)CC[C@]2(C)C2CC[C@@]3(C)[C@H](c4ccoc4)OC(=O)C4OC43[C@@]21C (some centres undefined) was tested, and the Kd was > 4 mM (inactive). With O=C1c2ccccc2C(=O)c2c1ccc(O)c2O the Kd was > 4 mM (inactive). With Cc1nn(C)c(N2CCOCC2)c1N the Kd was > 4 mM (inactive). CC(=O)n1nc(-c2cccnc2)nc1N was tested, and the Kd was > 4 mM (inactive). In the case of CC12OC(=O)CC3C(C)(C)[C@H](O)C=C[C@]3(C)C1CC[C@]1(C)C2=CC(=O)O[C@H]1c1ccoc1 (some centres undefined), the Kd is reported as > 4 mM (inactive). In the case of c1cncc(C(N2CCOCC2)N2CCOCC2)c1, the Kd is reported as > 4 mM (inactive). COC(=O)C1=CCCN(C)C1 was tested, and the Kd was > 4 mM (inactive). With CN1CN/C(=N\[N+](=O)[O-])N(c2ccccc2)C1 the Kd was > 4 mM (inactive). O=C(/C=C/c1ccc(O)cc1)c1ccc(O)cc1O was tested, and the Kd was > 4 mM (inactive). In the case of Cn1cnc([N+](=O)[O-])c1Sc1ncnc2nc[nH]c12, the Kd is reported as > 4 mM (inactive). In the case of O=C(NCc1ccccn1)c1ccc(Cl)cc1Cl, the Kd is reported as > 4 mM (inactive). For CNS(=O)(=O)c1ccc2[nH]c(=O)[nH]c2c1, the Kd was > 4 mM (inactive). For CNC(=O)C(=O)NCc1ccc(C)cc1, the Kd was > 4 mM (inactive). In the case of Cn1cnc2c(=O)[nH]cc([N+](=O)[O-])c21, the Kd is reported as > 4 mM (inactive). For COc1ccc(-c2coc3cc(O)ccc3c2=O)c(OC)c1, the Kd was > 4 mM (inactive). In the case of COc1ccccc1NC(=O)NC(N)=O, the Kd is reported as > 4 mM (inactive). With CC1=C2C(=CO[C@H](C)[C@H]2C)C(=O)C(C(=O)O)=C1O the Kd was > 4 mM (inactive). In the case of CC(=O)NC1=NN(c2ccccc2)C(=O)C1, the Kd is reported as > 4 mM (inactive). With Cn1c(CN2CC(c3ccccc3)CC2=O)n[nH]c1=S (centres undefined) the Kd was > 4 mM (inactive). For O=C(Nc1ccon1)c1cccc(Cl)c1, the Kd was > 4 mM (inactive). For O=C(NC(O)C(=O)c1ccccc1)c1ccco1 (centres undefined), the Kd was > 4 mM (inactive). With O=C(O)c1cccnc1N1CCCC1 the Kd was > 4 mM (inactive). With OCC1Cc2ccccc2N1 (centres undefined) the Kd was > 4 mM (inactive). With COc1cc2c(cc1OC)[C@@H]1C(=O)c3ccc(OC)c(CC=C(C)C)c3O[C@@H]1CO2 the Kd was > 4 mM (inactive). For O=C(O)c1ccccc1N1CCOCC1, the Kd was > 4 mM (inactive). CCNC(CC(=O)Nc1ccc(F)cc1)C(=O)O (centres undefined) was tested, and the Kd was > 4 mM (inactive). With Cc1ccc(-c2c(C)n([O-])c3c([n+]2=O)CCCC3)o1 the Kd was > 4 mM (inactive). With CCOC(=O)C1CCN(Cc2ccccc2)CC1=O (centres undefined) the Kd was > 4 mM (inactive). With CC1(C)SCC(C(=O)O)N1C=O (centres undefined) the Kd was > 4 mM (inactive). CC1(C)C2CC(=O)[C@]3(C)C(CC[C@@]4(C)[C@H](c5ccoc5)OC(=O)C5OC543)[C@@]2(C)[C@@H](O)C[C@H]1O (some centres undefined) was tested, and the Kd was > 4 mM (inactive). For CSc1ccc(/C=N/n2c(C)nnc2C)cc1, the Kd was > 4 mM (inactive). For OCc1ncoc1-c1ccccc1, the Kd was > 4 mM (inactive). CN(C)S(=O)(=O)c1ccc(NC=O)cc1 was tested, and the Kd was > 4 mM (inactive). With COc1ccc2c(c1)OC/C(=C/c1ccc(OC)c(OC)c1)C2=O the Kd was > 4 mM (inactive). With NC(=O)c1cccc(N2C(=O)C=CC2=O)c1 the Kd was > 4 mM (inactive). In the case of CCCn1c(S(=O)(=O)O)nc2ccccc21, the Kd is reported as > 4 mM (inactive). CC(=O)N1CCN(c2ccc(O)cc2)CC1 was tested, and the Kd was > 4 mM (inactive). For CC(C)NC(=O)c1cc(=O)n(C)c(=O)n1C, the Kd was > 4 mM (inactive). With O=C(c1ccco1)N1C(=O)c2cccc3cccc1c23 the Kd was > 4 mM (inactive). C=CC(C)(O)CC/C=C(\C)CCC=C(C)C (centres undefined) was tested, and the Kd was > 4 mM (inactive). With O=Cc1c(N2CCOCC2)nc2ccccn2c1=O the Kd was > 4 mM (inactive). O=C(NN1C(=O)CSC1=S)c1ccccc1 was tested, and the Kd was > 4 mM (inactive). In the case of O=C1NC(=O)/C(=C/c2ccc(O)cc2)N1, the Kd is reported as > 4 mM (inactive). With C=C1C2CC[C@@]3(C)[C@H](c4ccoc4)OC(=O)C[C@]13O[C@H]1CC(=O)C(C)(C)[C@H](C(OC(C)=O)C(=O)OC)[C@@]21C (some centres undefined) the Kd was > 4 mM (inactive). For O=C(Nc1nnc(-c2ccco2)o1)C1=COCCO1, the Kd was > 4 mM (inactive). With O=C(O)C1COc2ccccc2C1 (centres undefined) the Kd was > 4 mM (inactive). With O=c1ccnc(Nc2ccccc2O)[nH]1 the Kd was > 4 mM (inactive). For COc1nc(C)ccc1-c1noc(-c2ccncc2)n1, the Kd was > 4 mM (inactive). For Cc1nnc(Nc2ccc(S(N)(=O)=O)cc2)[nH]c1=O, the Kd was > 4 mM (inactive). For CC(=O)Nc1ccc(S(=O)(=O)NC2=NCCS2)cc1, the Kd was > 4 mM (inactive). For OCCOc1ccc(C2=NCCO2)cc1, the Kd was > 4 mM (inactive). CC(C)(O)[C@@H]1[C@H]2OC(=O)[C@@H]1[C@]1(O)C[C@H]3O[C@]34C(=O)O[C@H]2[C@]14C was tested, and the Kd was > 4 mM (inactive). CN1CCN(CC(O)c2ccccc2)CC1 (centres undefined) was tested, and the Kd was > 4 mM (inactive). For CSc1nc2cc(F)c(F)cc2n1C, the Kd was > 4 mM (inactive). O=C(O)Cn1nnnc1-c1ccc(F)cc1 was tested, and the Kd was > 4 mM (inactive). With COc1nc(C#N)c(N2CCOCC2)o1 the Kd was > 4 mM (inactive). For O=C(c1ccccc1F)N1CCN(c2ccccc2)CC1, the Kd was > 4 mM (inactive). With O=[N+]([O-])c1ccc2c(c1)N([O-])C1(CCCCC1)[N+]2=O the Kd was > 4 mM (inactive). In the case of NC(=O)CC1Sc2ccccc2NC1=O (centres undefined), the Kd is reported as > 4 mM (inactive). For O=C1CC(=O)N(c2ccccc2)C(=O)N1, the Kd was > 4 mM (inactive). In the case of Cc1nnsc1C(=O)Nc1cccc(S(N)(=O)=O)c1, the Kd is reported as > 4 mM (inactive). O=C(OCc1c(F)cccc1Cl)c1cnccn1 was tested, and the Kd was > 4 mM (inactive). In the case of CN(C)c1nc(N2CCOCC2)nc(N2CCOCC2)n1, the Kd is reported as > 4 mM (inactive). In the case of Cc1cc(Oc2ccccc2)nc(N)n1, the Kd is reported as > 4 mM (inactive). With CC(C)(C)C(=O)Nc1ncc(C(F)(F)F)cc1Cl the Kd was > 4 mM (inactive). With O=C1CNc2cc(C(=O)O)ccc2N1 the Kd was > 4 mM (inactive). In the case of Nc1nc2ccccc2n1CCN1CCCC1, the Kd is reported as > 4 mM (inactive). For OCc1cc2ccccc2o1, the Kd was > 4 mM (inactive). For NC(=O)C1CC2C=CC1C2 (centres undefined), the Kd was > 4 mM (inactive). With COc1ccc(-c2ccc(=O)n(CC(N)=O)n2)cc1 the Kd was > 4 mM (inactive). With N#Cc1cc(-c2ccccc2)oc1N the Kd was > 4 mM (inactive). For CCC[C@@H]1CCCCN1, the Kd was > 4 mM (inactive). CCOc1cc(S(=O)(=O)N2CCOCC2)ccc1F was tested, and the Kd was > 4 mM (inactive). CCOC(=O)c1c(SC)nc(=O)[nH]c1C was tested, and the Kd was > 4 mM (inactive). With CNC(=O)c1cccc(NC(=S)NC)c1 the Kd was > 4 mM (inactive). CC12CCC(O)CC1CCC1C2[C@H](O)CC2(C)C(C3=CC(=O)OC3)CCC12O (some centres undefined) was tested, and the Kd was > 4 mM (inactive). O=c1c(O)cccc2cc(O)c(O)c(O)c12 was tested, and the Kd was > 4 mM (inactive).
